Measurements from patent publication US20110200535A1, “DAA-PYRIDINE AS PERIPHERAL BENZODIAZEPINE RECEPTOR LIGAND FOR DIAGNOSTIC IMAGING AND PHARMACEUTICAL TREATMENT” (BAYER SCHERING PHARMA AKTIENGESELLSCHAFT, priority 2008, published 2011).
“And” between values parts separate entries of the source, which are not always exact repeats. Equal values may be shown once. One block for each compound: values may come before it.

Tests used:
Format in all cases: in vivo
[1] = Biodistribution of [^18F]-radioactivity in healthy male NMRI mice after intravenous injection (gamma counter); settings: for Elimination from mouse brain, 2 min/30 min ratio of brain uptake (% ID/g): 2 min to 30 min; for [^18F]-radioactivity in adrenals / [^18F]-radioactivity in blood / [^18F]-radioactivity in bone / [^18F]-radioactivity in brain (brain uptake) / [^18F]-radioactivity in fat / [^18F]-radioactivity in heart / [^18F]-radioactivity in intestine / [^18F]-radioactivity in kidney / [^18F]-radioactivity in liver / [^18F]-radioactivity in lung / [^18F]-radioactivity in muscle / [^18F]-radioactivity in pancreas / [^18F]-radioactivity in skin / [^18F]-radioactivity in spleen / [^18F]-radioactivity in stomach / [^18F]-radioactivity in testes / [^18F]-radioactivity in thyroid: normal mice, i.v., decay corrected
Procedure: (§1) The biodistribution of [^18F]-2d and [^18F]-5d was investigated in healthy male NMRI mice (28.3-35.6 g body weight, n=3 animals per time point) at 2, 5, 30, 60 and 180/240 min after intravenous injection of 0.264 MBq [^18F]-2d and 0.268 MBq [^18F]-5d per animal, respectively. Until the indicated time points urine and faeces were quantitatively collected. At the respective time points the mice were sacrificed and the tissues were removed. [^18F]-radioactivity was analyzed in a gamma counter (Tab. 1.1, 2.1 and 1.2, 2.2).

[2] = target: T1, peripheral benzodiazepine receptor (PBR) (Rattus norvegicus, UniProt P16257); experiment: Ex vivo autoradiography of brain sections, rat kainic acid induced epilepsy model; settings: for Hipp/Cereb ratio (signal-to-background ratio, hippocampus/cerebellum): rat kainic acid model, 30 min ex vivo autoradiography
T1 construct: from tissue; host or cells: rat brain (hippocampus, cerebellum) after i.v. tracer injection
Procedure: Using a rat kainic acid induced epilepsy model and respective sham controls the accumulation of [^18F]-2d and [^18F]-5d was visualized ex vivo. In brief, epilepsy was induced in rats by injecting kainic acid i.p. At day eight after the start of the kainic acid treatment [^18F]-2d and [^18F]-5d were injected into the tail vein of the rats and their sham treated controls (PBS instead of kainic acid) at a dose of 25.8-35.8 MBq (approximately 1.0 μg) per rat. Thirty minutes after intravenous injection the rats were sacrificed, the brains were taken out, snap frozen and sliced transversally in a cryostat. The slices were exposed to PhosphoImager plates over night. The resulting autoradiographic signals were analyzed qualitatively and quantitatively (FIG. 2.1 A and C, 2.2 A and C). […] To determine the specificity of the [^18F]-2d and [^18F]-5d binding, kainic acid treated rats were co-injected with [^19F]-2e and [^19F]-5e, respectively.
The autoradiographic signals were quantified. The signal intensity in a hippocampal region of interest (ROI) was measured and compared to a ROI in the cerebellum, that was used as reference region.

[3] = Excretion of [^18F]-radioactivity via urine and faeces in normal mice (gamma counter); settings: i.v., decay corrected
Procedure: as §1

Elimination from mouse brain, 2 min/30 min ratio of brain uptake (% ID/g) ([1]; mice): 2.0
Elimination from mouse brain, 2 min/30 min ratio of brain uptake (% ID/g) ([1]; mice, listed as FEDAA): 2.00
Hipp/Cereb ratio (signal-to-background ratio, hippocampus/cerebellum) [2]: 1.2±0.2
Structure (SMILES): COc1ccc(OCC[18F])c(CN(C(C)=O)c2cc(F)ccc2Oc2ccccc2)c1 [[^18F]-FEDAA1106, reference compound]

Initial elimination of the radioactivity from the brain ([1]; mice, 30 min p.i.): ca. 73%
Elimination from mouse brain, 2 min/30 min ratio of brain uptake (% ID/g) ([1]; mice): 3.7
[^18F]-radioactivity in adrenals ([1]; 2 min): 9.90 ± 1.17 % injected dose/g
[^18F]-radioactivity in blood ([1]; 2 min): 2.75 ± 0.40 % injected dose/g
[^18F]-radioactivity in bone ([1]; 2 min): 1.02 ± 0.31 % injected dose/g
[^18F]-radioactivity in brain (brain uptake) ([1]; 2 min): 1.61±0.23 % injected dose/g
[^18F]-radioactivity in fat ([1]; 2 min): 0.24 ± 0.08 % injected dose/g
[^18F]-radioactivity in heart ([1]; 2 min): 17.21 ± 1.43 % injected dose/g
[^18F]-radioactivity in intestine ([1]; 2 min): 0.77 ± 0.24 % injected dose/g
[^18F]-radioactivity in kidney ([1]; 2 min): 6.15 ± 1.95 % injected dose/g
[^18F]-radioactivity in liver ([1]; 2 min): 1.51 ± 0.38 % injected dose/g
[^18F]-radioactivity in lung ([1]; 2 min): 65.87 ± 15.87 % injected dose/g
[^18F]-radioactivity in muscle ([1]; 2 min): 1.23 ± 0.27 % injected dose/g
[^18F]-radioactivity in pancreas ([1]; 2 min): 1.54 ± 0.34 % injected dose/g
[^18F]-radioactivity in skin ([1]; 2 min): 0.52 ± 0.02 % injected dose/g
[^18F]-radioactivity in spleen ([1]; 2 min): 1.40 ± 0.06 % injected dose/g
[^18F]-radioactivity in stomach ([1]; 2 min): 2.03 ± 1.05 % injected dose/g
[^18F]-radioactivity in testes ([1]; 2 min): 0.50 ± 0.01 % injected dose/g
[^18F]-radioactivity in thyroid ([1]; 2 min): 3.97 ± 1.12 % injected dose/g
[^18F]-radioactivity in adrenals ([1]; 5 min): 28.94 ± 11.26 % injected dose/g
[^18F]-radioactivity in blood ([1]; 5 min): 2.13 ± 0.23 % injected dose/g
[^18F]-radioactivity in bone ([1]; 5 min): 1.41 ± 0.19 % injected dose/g
[^18F]-radioactivity in brain (brain uptake) ([1]; 5 min): 1.13 ± 0.22 % injected dose/g
[^18F]-radioactivity in fat ([1]; 5 min): 0.24 ± 0.03 % injected dose/g
[^18F]-radioactivity in heart ([1]; 5 min): 18.45 ± 1.69 % injected dose/g
[^18F]-radioactivity in intestine ([1]; 5 min): 1.42 ± 0.02 % injected dose/g
[^18F]-radioactivity in kidney ([1]; 5 min): 8.53 ± 1.50 % injected dose/g
[^18F]-radioactivity in liver ([1]; 5 min): 2.19 ± 31^ % injected dose/g
[^18F]-radioactivity in lung ([1]; 5 min): 45.38 ± 5.54 % injected dose/g
[^18F]-radioactivity in muscle ([1]; 5 min): 1.89 ± 0.32 % injected dose/g
[^18F]-radioactivity in pancreas ([1]; 5 min): 2.37 ± 0.56 % injected dose/g
[^18F]-radioactivity in skin ([1]; 5 min): 0.79 ± 0.07 % injected dose/g
[^18F]-radioactivity in spleen ([1]; 5 min): 3.25 ± 0.15 % injected dose/g
[^18F]-radioactivity in stomach ([1]; 5 min): 3.04 ± 0.49 % injected dose/g
[^18F]-radioactivity in testes ([1]; 5 min): 0.71 ± 0.10 % injected dose/g
[^18F]-radioactivity in thyroid ([1]; 5 min): 4.25 ± 0.79 % injected dose/g
[^18F]-radioactivity in adrenals ([1]; 30 min): 12.31 ± 0.43 % injected dose/g
[^18F]-radioactivity in blood ([1]; 30 min): 0.80 ± 0.17 % injected dose/g
[^18F]-radioactivity in bone ([1]; 30 min): 2.05 ± 0.08 % injected dose/g
[^18F]-radioactivity in fat ([1]; 30 min): 0.61 ± 0.26 % injected dose/g
[^18F]-radioactivity in heart ([1]; 30 min): 7.53 ± 2.41 % injected dose/g
[^18F]-radioactivity in intestine ([1]; 30 min): 2.48 ± 0.78 % injected dose/g
[^18F]-radioactivity in kidney ([1]; 30 min): 9.53 ± 0.82 % injected dose/g
[^18F]-radioactivity in liver ([1]; 30 min): 3.52 ± 1.35 % injected dose/g
[^18F]-radioactivity in lung ([1]; 30 min): 9.83 ± 1.66 % injected dose/g
[^18F]-radioactivity in muscle ([1]; 30 min): 2.14 ± 0.31 % injected dose/g
[^18F]-radioactivity in pancreas ([1]; 30 min): 2.46 ± 0.19 % injected dose/g
[^18F]-radioactivity in skin ([1]; 30 min): 1.23 ± 0.21 % injected dose/g
[^18F]-radioactivity in spleen ([1]; 30 min): 5.68 ± 0.59 % injected dose/g
[^18F]-radioactivity in stomach ([1]; 30 min): 3.01 ± 0.70 % injected dose/g
[^18F]-radioactivity in testes ([1]; 30 min): 0.75 ± 0.19 % injected dose/g
[^18F]-radioactivity in thyroid ([1]; 30 min): 3.81 ± 0.42 % injected dose/g
[^18F]-radioactivity in adrenals ([1]; 60 min): 16.66 ± 2.86 % injected dose/g
[^18F]-radioactivity in blood ([1]; 60 min): 0.75 ± 0.01 % injected dose/g
[^18F]-radioactivity in bone ([1]; 60 min): 1.69 ± 0.26 % injected dose/g
[^18F]-radioactivity in brain (brain uptake) ([1]; 60 min): 0.34 ± 0.06 % injected dose/g
[^18F]-radioactivity in fat ([1]; 60 min): 3.27 ± 0.30 % injected dose/g
[^18F]-radioactivity in heart ([1]; 60 min): 5.76 ± 0.87 % injected dose/g
[^18F]-radioactivity in intestine ([1]; 60 min): 3.31 ± 0.16 % injected dose/g
[^18F]-radioactivity in kidney ([1]; 60 min): 9.57 ± 0.76 % injected dose/g
[^18F]-radioactivity in liver ([1]; 60 min): 2.35 ± 0.35 % injected dose/g
[^18F]-radioactivity in lung ([1]; 60 min): 6.46 ± 1.07 % injected dose/g
[^18F]-radioactivity in muscle ([1]; 60 min): 2.13 ± 0.21 % injected dose/g
[^18F]-radioactivity in pancreas ([1]; 60 min): 2.34 ± 0.48 % injected dose/g
[^18F]-radioactivity in skin ([1]; 60 min): 1.39 ± 0.10 % injected dose/g
[^18F]-radioactivity in spleen ([1]; 60 min): 5.79 ± 0.10 % injected dose/g
[^18F]-radioactivity in stomach ([1]; 60 min): 4.21 ± 0.25 % injected dose/g
[^18F]-radioactivity in testes ([1]; 60 min): 0.90 ± 0.10 % injected dose/g
[^18F]-radioactivity in thyroid ([1]; 60 min): 3.21 ± 0.75 % injected dose/g
[^18F]-radioactivity in adrenals ([1]; 240 min): 13.93 ± 6.07 % injected dose/g
[^18F]-radioactivity in blood ([1]; 240 min): 0.60 ± 0.07 % injected dose/g
[^18F]-radioactivity in brain (brain uptake) ([1]; 240 min): 0.32 ± 0.08 % injected dose/g
[^18F]-radioactivity in fat ([1]; 240 min): 0.86 ± 0.10 % injected dose/g
[^18F]-radioactivity in heart ([1]; 240 min): 2.21 ± 0.24 % injected dose/g
[^18F]-radioactivity in intestine ([1]; 240 min): 3.96 ± 0.16 % injected dose/g
[^18F]-radioactivity in kidney ([1]; 240 min): 6.84 ± 0.69 % injected dose/g
[^18F]-radioactivity in liver ([1]; 240 min): 1.76 ± 0.23 % injected dose/g
[^18F]-radioactivity in lung ([1]; 240 min): 3.42 ± 0.73 % injected dose/g
[^18F]-radioactivity in muscle ([1]; 240 min): 1.32 ± 0.11 % injected dose/g
[^18F]-radioactivity in pancreas ([1]; 240 min): 1.41 ± 0.22 % injected dose/g
[^18F]-radioactivity in skin ([1]; 240 min): 1.47 ± 0.06 % injected dose/g
[^18F]-radioactivity in spleen ([1]; 240 min): 3.02 ± 0.25 % injected dose/g
[^18F]-radioactivity in stomach ([1]; 240 min): 3.43 ± 0.54 % injected dose/g
[^18F]-radioactivity in testes ([1]; 240 min): 0.94 ± 0.12 % injected dose/g
[^18F]-radioactivity in thyroid ([1]; 240 min): 2.50 ± 0.15 % injected dose/g
Excretion of [^18F]-radioactivity via faeces ([3]; 2 min): 0.00 ± 0.00 % injected dose
Excretion of [^18F]-radioactivity via urine ([3]; 2 min): 0.02 ± 0.02 % injected dose
Excretion of [^18F]-radioactivity via faeces ([3]; 5 min): 0.00 ± 0.00 % injected dose
Excretion of [^18F]-radioactivity via urine ([3]; 5 min): 0.04 ± 0.00 % injected dose
Excretion of [^18F]-radioactivity via faeces ([3]; 30 min): 0.03 ± 0.02 % injected dose
Excretion of [^18F]-radioactivity via urine ([3]; 30 min): 2.33 ± 1.20 % injected dose
Excretion of [^18F]-radioactivity via faeces ([3]; 60 min): 0.04 ± 0.02 % injected dose
Excretion of [^18F]-radioactivity via urine ([3]; 60 min): 4.21 ± 0.97 % injected dose
Excretion of [^18F]-radioactivity via faeces ([3]; 240 min): 0.74±1.01 % injected dose
Excretion of [^18F]-radioactivity via urine ([3]; 240 min): 15.24±1.25 % injected dose
Hipp/Cereb ratio (signal-to-background ratio, hippocampus/cerebellum) [2]: 3.0 ± 0.9
Hipp/Cereb ratio (signal-to-background ratio, hippocampus/cerebellum) ([2]; listed as 5d): 3.0±0.9
Structure (SMILES): COc1ccc(OCC[18F])c(CN(C(C)=O)c2cccnc2Oc2cccc(C)c2C)c1 [[^18F]-5d, N-[2-(2,3-dimethylphenoxy)pyridin-3-yl]-N-[2-(2-[^18F]fluoroethoxy)-5-methoxybenzyl]acetamide]
[^18F]-radioactivity in brain (brain uptake) ([1]; 30 min): 0.44±0.15 % injected dose/g and 0.44 ± 0.51 % injected dose/g
[^18F]-radioactivity in bone ([1]; 240 min): 2.6 % injected dose/g and 2.59 ± 0.56 % injected dose/g
Specificity of binding: autoradiographic signal on co-injection of the corresponding [^19F] compound ([2]; kainic acid treated rats, co-injected with [^19F]-2e and [^19F]-5e, respectively): significantly reduced autoradiographic signal

Elimination from mouse brain, 2 min/30 min ratio of brain uptake (% ID/g) ([1]; mice): 4.85
Structure (SMILES): COc1ccc(OCC[18F])c(CN(C(C)=O)c2cccnc2Cc2ccc(F)cc2)c1 [compound 21]
